Consider 22 molecules from patent US9593113B2, “Imide and acylurea derivatives as modulators of the glucocorticoid receptor” (BRISTOL-MYERS SQUIBB COMPANY, priority 2013, dated 2017).

Like-named read-outs stand apart in the source and are kept apart here.

For test [1], the system named is AP-1 induced transcriptional activity. The experiment in a line: Cellular transrepressional assay (AP-1 luciferase reporter, PMA-activated A549 cell). The format is cell-based. Conditions: for EC50: read-out: AP-1 (EC50, nM) (measured in cellular transrepression assay). Here is the method: To measure the ability of test molecules to inhibit AP-1 induced transcriptional activity we utilized an A549 cell which was stably transfected with a plasmid containing 7×AP-1 DNA binding sites (pAP-1-Luc plasmid, Stratagene Co., La Jolla, Calif.) followed by the gene for luciferase. Cells were activated with 10 ng/ml of phorbol myristic acid (PMA) plus or minus test molecules for 7 hours. After 7 hours a luciferase reagent was added to measure luciferase enzymatic activity in the cell. After a 10 minute incubation of luciferase reagent with cells, luminescence was measured in a TOPCOUNT® luminescence counter. Repression of AP-1 activity was calculated as the percentage decrease in the signal induced by PMA alone. Test molecules were analyzed in the concentration range from 0.1 nM to 40 μM. EC50s were determined by using standard curve fitting methods such as Excel fit (Microsoft Co.). An EC50 is the test molecule concentration at which there is a 50% repression of the maximal inhibition of transcription, i.e., a 50% reduction of AP-1 activity.

In test [2] the target is human full-length glucocorticoid receptor (Homo sapiens (Human), UniProt P04150). The experiment in a line: Glucocorticoid Receptor Binding Assay (II), fluorescence polarization competitor kit. Here is the method: In order to measure the binding of compounds on the glucocorticoid receptor a commercially available kit was used (Glucocorticoid receptor competitor assay kit, PanVera Co., Madison, Wis., P2816). Briefly, a cell lysate containing recombinantly expressed human full-length glucocorticoid receptor was mixed with a fluorescently labeled glucocorticoid (1 nM Fluormone GS1) in the presence or absence of test compound. After one hour at room temperature, the fluorescence polarization (FP) of the samples were measured.
Chain of human full-length glucocorticoid receptor (P04150 whole entry): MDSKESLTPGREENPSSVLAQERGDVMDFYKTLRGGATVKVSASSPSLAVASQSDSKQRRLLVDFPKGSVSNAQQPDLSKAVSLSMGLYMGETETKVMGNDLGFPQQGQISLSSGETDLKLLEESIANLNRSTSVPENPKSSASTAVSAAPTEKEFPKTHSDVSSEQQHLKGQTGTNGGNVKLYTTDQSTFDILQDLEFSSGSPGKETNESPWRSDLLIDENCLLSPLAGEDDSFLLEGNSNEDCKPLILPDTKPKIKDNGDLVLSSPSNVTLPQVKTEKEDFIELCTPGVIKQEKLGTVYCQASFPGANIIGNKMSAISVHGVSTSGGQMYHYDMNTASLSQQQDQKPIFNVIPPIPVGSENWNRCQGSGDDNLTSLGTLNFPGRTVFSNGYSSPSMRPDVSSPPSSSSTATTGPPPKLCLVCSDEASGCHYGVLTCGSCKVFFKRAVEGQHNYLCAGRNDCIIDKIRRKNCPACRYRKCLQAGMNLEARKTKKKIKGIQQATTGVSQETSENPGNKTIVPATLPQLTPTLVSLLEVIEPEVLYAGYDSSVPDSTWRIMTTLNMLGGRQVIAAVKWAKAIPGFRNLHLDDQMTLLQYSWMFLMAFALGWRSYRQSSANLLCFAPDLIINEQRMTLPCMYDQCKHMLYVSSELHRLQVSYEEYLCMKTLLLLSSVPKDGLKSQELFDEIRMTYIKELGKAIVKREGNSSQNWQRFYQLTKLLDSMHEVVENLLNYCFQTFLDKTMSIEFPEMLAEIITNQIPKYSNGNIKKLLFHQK

[3] abbreviates: A549 cell, 10 ng/ml PMA, 7 hours.
[4] abbreviates: read-out: GR (Ki, nM) (measured in GR binding Assay II).
Setting [5] is: Homo sapiens, A549 cell, 10 ng/ml PMA, 7 hours.

In the case of `CC(C)(C(=O)NC(N)=O)[C@H]1c2ccccc2Oc2nc(-c3ccc(C(=O)N4CCCC4)c(Cl)c3)ccc21` [Example 52], in test [1] (setting [3]), the “AP-1 Max % inhibition (measured in cellular transrepression assay)” value (“AP-1 Max % inhibition” for short) is 57.02% and the EC50 is 815 nM. Besides, the Ki in test [2] (setting [4]) was 123 nM.

With `CC(C)(C(=O)NC(N)=O)[C@H]1c2ccccc2Oc2nc(-c3ccc(C(=O)N4CCC(F)(F)C4)c(Cl)c3)ccc21` [Example 53], in test [1] (setting [3]), the “AP-1 Max % inhibition” value is recorded as 28.67% and the concentration giving a half-maximal response (EC50) was 2500 nM. Further, the Ki in test [2] (setting [4]) stood at 369 nM.

Regarding `CC(C)(C(=O)NC(N)=O)[C@H]1c2ccccc2Oc2nc(-c3ccc(C(=O)N4CCCC4)nc3)ccc21` [Example 54], in test [1] (setting [3]), the “AP-1 Max % inhibition” value stood at 55.36% and the EC50 is 67.2 nM. For the same molecule, in test [2] (setting [4]), the Ki was determined as 7.65 nM.

Turning to `CC(C)Oc1ccc(-c2ccc3c(n2)Oc2ccccc2[C@@H]3C(C)(C)C(=O)NC(N)=O)cn1` [Example 57], in test [1] (setting [3]), the “AP-1 Max % inhibition” value was determined as 73.98% and the EC50 is 128 nM. In addition, in test [2] (setting [4]), the Ki was determined as 4.23 nM.

Take `CN(C)c1ccc(-c2ccc3c(n2)Oc2ccccc2[C@@H]3C(C)(C)C(=O)NC(N)=O)cn1` [Example 58]: in test [1] (setting [3]), the “AP-1 Max % inhibition” value was determined as 45.16% and the EC50 is 72.6 nM. Further, the Ki in test [2] (setting [4]) was determined as 24.9 nM.

With `CC(C)Nc1ccc(-c2ccc3c(n2)Oc2c(F)cccc2[C@@H]3C(C)(C)C(=O)NC(N)=O)cn1` [Example 60], in test [1], the “AP-1 Max % inhibition” value came to 66.44% and the EC50 came out at 2.9 nM. The Ki in test [2] (setting [4]) was determined as 1.13 nM.

As for `CC(=O)Nc1ccc(-c2ccc3c(n2)Oc2c(F)cccc2[C@@H]3C(C)(C)C(=O)NC(N)=O)cn1` [Example 61], in test [1] (setting [3]), the “AP-1 Max % inhibition” value came out at 39.15% and the EC50 stood at 31.1 nM. The Ki in test [2] (setting [4]) was 4.26 nM.

`CC(C)(C(=O)NC(N)=O)[C@@H]1c2ccc(-c3ccc(NC4CC4)nc3)nc2Oc2c(F)cccc21` [Example 62]: in test [1] (setting [3]), the “AP-1 Max % inhibition” value was 64.75% and the EC50 was 8.24 nM. In test [2] (setting [4]), the inhibition constant Ki was 1.15 nM.

For `CC(C)(C(=O)NC(N)=O)[C@@H]1c2ccc(-c3ccc(C(=O)O)nc3)nc2Oc2c(F)cccc21` [Example 63], in test [1] (setting [3]), the “AP-1 Max % inhibition” value is recorded as 39.61% and the EC50 stood at 142 nM. The Ki in test [2] (setting [4]) came to 10.8 nM.

Turning to `CC(C)(C(=O)NC(N)=O)[C@@H]1c2ccc(-c3ccc(N4CCCCC4)nc3)nc2Oc2c(F)cccc21` [Example 64], in test [1], the “AP-1 Max % inhibition” value was determined as 44.43% and the EC50 stood at 72.5 nM. Also, the Ki in test [2] (setting [4]) came to 1.7 nM.

Turning to `CC(C)Oc1ccc(-c2ccc3c(n2)Oc2ccccc2[C@@H]3C(C)(C)C(=O)NC(N)=O)cn1` [Example 65], in test [1] (setting [3]), the “AP-1 Max % inhibition” value came to 54.73% and the EC50 stood at 4.89 nM. Besides, in test [2] (setting [4]), the Ki was found to be 0.5 nM.

Regarding `CC(=O)Nc1ccc(-c2ccc3c(n2)Oc2ccccc2[C@@H]3C(C)(C)C(=O)NC(N)=O)cn1` [Example 66], in test [1] (setting [3]), the “AP-1 Max % inhibition” value worked out at 36.83% and the EC50 stood at 39.7 nM. Besides, the Ki in test [2] (setting [4]) stood at 2.66 nM.

For the molecule `Cc1nnn(-c2ccc(-c3ccc4c(n3)Oc3ccccc3[C@@H]4C(C)(C)C(=O)NC(N)=O)cc2)n1` [Example 67], in test [1] (setting [3]), the “AP-1 Max % inhibition” value turned out to be 53.28% and the concentration for a half-maximal effect (EC50) came out at 4.98 nM. In addition, the Ki in test [2] (setting [4]) was determined as 1.51 nM.

With `CC(C)Oc1ccc(-c2ccc3c(n2)Oc2c(F)cccc2[C@@H]3C(C)(C)C(=O)NC(N)=O)cn1` [Example 68], in test [1] (setting [3]), the “AP-1 Max % inhibition” value worked out at 61.39%. The EC50 in test [1] (setting [5]) turned out to be 8.57 nM. The molecule also came in with a Ki in test [2] of 0.63 nM.

In the case of `CC(C)(O)c1ccc(-c2ccc3c(n2)Oc2ccccc2[C@@H]3C(C)(C)C(=O)NC(N)=O)cc1` [Example 70], in test [1] (setting [3]), the “AP-1 Max % inhibition” value was 79.50%. Also, the EC50 in test [1] (setting [5]) was 8.94 nM. In test [2] (setting [4]), the Ki amounted to 1.19 nM.

As to `CN1CCN(c2ncc(-c3ccc4c(n3)Oc3c(F)cccc3[C@@H]4C(C)(C)C(=O)NC(N)=O)cn2)CC1` [Example 71], the “AP-1 Max % inhibition” value in test [1] (setting [3]) came out at 39.16%. In test [1] (setting [5]), the EC50 was 93.6 nM. Also, the Ki in test [2] (setting [4]) was determined as 25.9 nM.

Regarding `CC(C)(C(=O)NC(N)=O)[C@H]1c2ccccc2Oc2nc(-c3ccncc3)ccc21` [Example 72], the “AP-1 Max % inhibition” value in test [1] (setting [3]) is listed as 37.36%. Further, the EC50 in test [1] (setting [5]) was found to be 36 nM. The Ki in test [2] (setting [4]) amounted to 4.71 nM.

Take `CC(C)(C(=O)NC(N)=O)[C@@H]1c2ccc(-c3ccncc3)nc2Oc2c(F)cccc21` [Example 73]: in test [1] (setting [3]), the “AP-1 Max % inhibition” value is 55.78%. Further, the EC50 in test [1] (setting [5]) was found to be 20.1 nM. Further, the Ki in test [2] (setting [4]) was 1.72 nM.

As for `CC(C)(C(=O)NC(N)=O)C1c2ccccc2Oc2ccccc21` [Example 75], in test [1] (setting [3]), the “AP-1 Max % inhibition” value was determined as 10.32%. For the same molecule, in test [1] (setting [5]), the EC50 amounted to 5000 nM. In test [2] (setting [4]), the Ki was found to be 32 nM.

On to `CC(C)(C(=O)NC(N)=O)[C@H]1c2ccccc2Oc2nc(-c3cc[n+]([O-])cc3)ccc21` [Example 76], for which, in test [1] (setting [3]), the “AP-1 Max % inhibition” value amounted to 23.09% and the EC50 turned out to be 327 nM. Further, the Ki in test [2] (setting [4]) was 119 nM.

In the case of `CC(C)(C(=O)NC(N)=O)[C@@H]1c2ccc(-c3ccc(C(=O)N4CCCCC4)cc3)nc2Oc2c(F)cccc21` [Example 83], the “AP-1 Max % inhibition” value in test [1] (setting [3]) is listed as 86.42%. In addition, in test [1] (setting [5]), the 50% effective concentration (EC50) was 5.89 nM. Besides, the Ki in test [2] (setting [4]) worked out at 1.11 nM.

As for `CC(C)(C(=O)NC(N)=O)[C@@H]1c2ccc(-c3ccc(C(=O)N4CC[C@@H](F)C4)cc3)nc2Oc2c(F)cccc21` [Example 85], the “AP-1 Max % inhibition” value in test [1] (setting [3]) is listed as 76.00%. In addition, the EC50 in test [1] (setting [5]) turned out to be 0.8 nM. In addition, in test [2] (setting [4]), the Ki was 1.2 nM.
